In patent US20250281649A1, “PROBE DIRECTED TO ENZYME ALDH1A3 AND USE THEREOF IN THE DIAGNOSIS OF GLIOBLASTOMA” (Universita' Degli Studi Del Piemonte Orientale "A. Avogadro", priority 2021, published 2025):
Like-named read-outs stand apart in the source and are kept apart here.

T1: ALDH1A1 (Homo sapiens, UniProt P00352)
T1 construct: His-tag; made in house; host or cells: bacterial cells
T1 sequence (P00352 1-501): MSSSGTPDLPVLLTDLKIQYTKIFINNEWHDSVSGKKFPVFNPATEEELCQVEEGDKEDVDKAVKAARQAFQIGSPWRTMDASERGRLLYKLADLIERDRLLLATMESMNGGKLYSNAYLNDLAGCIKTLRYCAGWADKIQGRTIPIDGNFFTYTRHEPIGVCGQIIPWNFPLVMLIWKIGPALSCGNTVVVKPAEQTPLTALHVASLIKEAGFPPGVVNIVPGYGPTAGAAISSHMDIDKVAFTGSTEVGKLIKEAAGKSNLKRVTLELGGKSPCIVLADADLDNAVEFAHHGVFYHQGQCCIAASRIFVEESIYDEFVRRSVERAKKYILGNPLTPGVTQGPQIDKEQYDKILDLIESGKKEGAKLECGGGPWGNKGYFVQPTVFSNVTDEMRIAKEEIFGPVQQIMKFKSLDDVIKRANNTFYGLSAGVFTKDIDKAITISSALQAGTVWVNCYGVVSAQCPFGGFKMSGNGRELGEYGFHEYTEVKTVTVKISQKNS

T2: ALDH1A2 (Homo sapiens, UniProt O94788)
T2 construct: His-tag; made in house; host or cells: bacterial cells
T2 sequence (O94788 1-518): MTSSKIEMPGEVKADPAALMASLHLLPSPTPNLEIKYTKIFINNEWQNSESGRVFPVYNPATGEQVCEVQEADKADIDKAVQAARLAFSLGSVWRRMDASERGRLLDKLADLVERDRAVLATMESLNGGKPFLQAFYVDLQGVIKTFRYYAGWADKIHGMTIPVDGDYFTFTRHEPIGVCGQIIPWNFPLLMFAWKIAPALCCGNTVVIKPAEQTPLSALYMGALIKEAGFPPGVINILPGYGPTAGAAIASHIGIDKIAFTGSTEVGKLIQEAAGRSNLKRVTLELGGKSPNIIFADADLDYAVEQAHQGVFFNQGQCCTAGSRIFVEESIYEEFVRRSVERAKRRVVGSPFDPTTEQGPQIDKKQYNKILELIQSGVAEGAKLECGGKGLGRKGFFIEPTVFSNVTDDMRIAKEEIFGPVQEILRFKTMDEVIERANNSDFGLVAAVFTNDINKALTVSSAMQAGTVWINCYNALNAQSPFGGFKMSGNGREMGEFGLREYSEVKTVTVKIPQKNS

T3: ALDH1A3 (Homo sapiens, UniProt P47895)
T3 construct: His-tag; made in house; host or cells: bacterial cells
T3 sequence (P47895 1-512): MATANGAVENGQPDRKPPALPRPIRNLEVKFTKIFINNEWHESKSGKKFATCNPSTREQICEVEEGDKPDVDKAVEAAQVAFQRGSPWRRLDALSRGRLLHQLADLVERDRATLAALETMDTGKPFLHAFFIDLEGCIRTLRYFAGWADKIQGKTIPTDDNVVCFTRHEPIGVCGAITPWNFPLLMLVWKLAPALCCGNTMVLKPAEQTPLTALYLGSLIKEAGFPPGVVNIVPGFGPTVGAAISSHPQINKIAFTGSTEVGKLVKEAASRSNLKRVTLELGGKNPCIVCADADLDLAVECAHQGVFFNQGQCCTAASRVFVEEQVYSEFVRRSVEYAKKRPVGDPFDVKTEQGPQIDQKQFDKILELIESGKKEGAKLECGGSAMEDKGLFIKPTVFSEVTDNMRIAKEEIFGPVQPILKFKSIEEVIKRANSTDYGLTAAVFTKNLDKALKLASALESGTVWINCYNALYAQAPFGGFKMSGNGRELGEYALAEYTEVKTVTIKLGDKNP

B1: ALDH1A2 (Homo sapiens) (protein)
chain: T2 sequence (O94788 1-518)
notes: His-tag; made in house; host or cells: bacterial cells
B2: ALDH1A1 (Homo sapiens) (protein)
chain: T1 sequence (P00352 1-501)
notes: as for B1

Columns and labels:
[1] = target: T1, ALDH1A1; experiment: IC50 evaluation, NADH formation at 340 nm (Tecan SUNRISE); format: biochemical
Procedure: (§1) A common protocol to express and purify all three members of the ALDHIA subfamily has been optimized. Briefly, induced cells, collected by centrifugation, were re-suspended in an appropriate volume of lysis buffer (50 mM Na2HPO4, 300 mM NaCl, 1 mM β-mercaptoethanol, 20 mM imidazole, pH 7.5) added of benzonase nuclease (250 U/μL) and Protease inhibitor cocktail from SIGMA. After ultracentrifugation, the clarified sample was purified by a His-tag affinity chromatography followed by size-exclusion chromatography, using an AKTA FPLC system, at 4° C. To evaluate the purity and homogeneity of the protein, after each purification step, eluted d fractions were analyzed by SDS-PAGE and the protein quantification was always determined by Bradford protein assay.
(§2) IC50 evaluation: on a Tecan—SUNRISE, probe 13 was tested in a serial dilution series from 200 μM to 3, 125 μM, against all the three isoenzymes. The recipe of reaction buffer was: 20 mM Tris HCl pH=8, 150 mM KCl, 1 mM B-mercaptoethanol, 500 μM NAD^+, 15% DMSO fixed, 20 mM acetaldehyde and 2.7 μM each isoenzyme. The analysis was conducted measuring the NADH formation, that has a specific absorbance wavelength (340 nm). The test was performed in triplicate with all the three isoenzymes.

[2] = target: T2, ALDH1A2; experiment: as above; format: biochemical; conditions: 20 mM acetaldehyde, 500 μM NAD+, 15% DMSO, 2.7 μM isoenzyme
Procedure: as §1, §2

[3] = target: T3, ALDH1A3; experiment: as above; format: biochemical
Procedure: as §1, §2

[4] = target: T1, ALDH1A1; experiment: KD evaluation by probe fluorescence (Tecan SPARK); format: binding; conditions: probe fixed at 10 μM, isoenzyme 100 μM to 1 μM
Procedure: as §1
(§3) KD evaluation: on a Tecan—SPARK, probe 14 and 13 were tested at a fixed concentration of 10 μM. All the isoenzymes were tested in wide range of concentrations (from 100 μM to 1 μM). The analysis was settled with a BW of 20, monitoring the Em wavelength in range comprised between 520 and 535 nm for probe 14 and 520 and 580 nm for probe 13. The Ex was fixed at 420 nm for probe 14 and 440 nm for probe 13. The test was performed in quadruplicate with all the three isoenzymes. The recipe of the buffer reaction was the same as described before.

[5] = target: T2, ALDH1A2; experiment: KD evaluation by probe fluorescence (Tecan SPARK); format: binding; conditions: probe fixed at 10 μM, isoenzyme 100 μM to 1 μM
Procedure: as §1, §3

[6] = target: T3, ALDH1A3; experiment: KD evaluation by probe fluorescence (Tecan SPARK); format: binding
Procedure: as §1, §3

[7] = target: T3, ALDH1A3; experiment: Fluorescence of probes in buffer and in complex with the isoenzymes (Tecan SPARK); format: binding; conditions: in complex with the three isoenzymes, in particular ALDH1A3
Procedure: All five compounds were dissolved in DMSO (100%) to obtain two different initial stocks, one at 10 mM and a second one at 1 mM. […] The assay can be executed at a maximum DMSO percentage of 15%. The maximum probe concentration tested was 500 uM—15% DMSO. All the compounds were tested using a Tecan—SPARK, to analyze their absorbance, excitation and emission wavelength. Based on the literature, the absorbance of the curcumin by itself is comprised between 420 and 425 nm. At first, we measured the absorbance, and from those values, we performed a 3D analysis to highlights the correct Ex and Em wavelengths. To avoid any possible background in the fluorescence signal we performed a screening of every possible buffer used in our assays.

[8] = substrate: COc1cc(/C=C/C(=O)/C=C(O)/C=C/c2ccc(OCc3cn(CCOc4ccc(C=O)cc4)nn3)c(OC)c2)ccc1O; experiment: KM evaluation, compound as possible substrate, NADH formation; format: biochemical, human; conditions: 5% DMSO, pH 7.5
Procedure: as §1
KM evaluation: on a Tecan—SUNRISE, due to the inconsistency of result of the KD evaluation with probe 13 and to its chemistry nature (benzaldehyde), we performed an analysis to evaluate this compound possible substrate. The compound was tested in a serial dilution from 300 to 3.125 μM, at 5% DMSO. The analysis was conducted measuring the NADH formation, that has a specific absorbance wavelength (340 nm). The recipe of the buffer reaction was the same as described before. The assay was performed only for ALDH1A1 and ALDH1A2. The test was performed in triplicate with all the three isoenzymes.

[9] = ALDH1A1, 20 mM acetaldehyde, 500 μM NAD+, 15% DMSO, 2.7 μM isoenzyme, read-out: IC50
[10] = ALDH1A3, 20 mM acetaldehyde, 500 μM NAD+, 15% DMSO, 2.7 μM isoenzyme, read-out: IC50
[11] = ALDH1A3, probe fixed at 10 μM, isoenzyme 100 μM to 1 μM, read-out: KD

Molecule | IC50 [1, 9] [µM] | IC50 [2] | IC50 [3, 10] [µM] | Kd [4] [µM] | Kd [6, 11] [µM] | increase of fluorescence in complex with the isoenzymes [7] | other results
COc1cc(/C=C/C(O)=C/C(=O)/C=C/c2ccc(N(C)C)cc2)ccc1OCc1cn(CCOc2ccc(C=O)cc2)nn1 [Compound 15] | 28.5 | N.I. | 5.1 | 23.9 | 20.4 | no good result | Kd [5]: 8.7 µM
CCOP(=O)(OCC)Oc1ccc(/C=C/C(=O)/C=C(O)/C=C/c2ccc(OCc3cn(CCOc4ccc(C=O)cc4)nn3)c(OC)c2)cc1OC [Compound 16] |  | N.I. |  |  |  | no good result | IC50 [1]: 150 µM; IC50 [3]: 8.5 µM; Kd [6]: 55.7 µM
CCOC(=O)Cn1cc(COc2ccc(C=CC(=O)C=C(O)C=Cc3ccc(OP(=O)(OCC)OCC)c(OC)c3)cc2OC)nn1 [Compound 17] | 70.1 | N.I. | 158 | 18.1 | 14.9 |  | 
B1 |  |  |  |  |  |  | Km ([8]; other: ALDH1A2, 300 to 3.125 μM): 220.0 µM
B2 |  |  |  |  |  |  | Km ([8]; other: ALDH1A1, 300 to 3.125 μM): 255.2 µM
